Among the data in US20090093469A1, “Phenylaminopropanol Derivatives and Methods of Their Use” (WYETH, priority 2004, published 2009) are inhibition values, retold here.

A word on the inhibition: it is the share of the control response that was lost under treatment.

Each structure is given as a SMILES string. Counter-ions that a name gives are not always drawn.

T1 sequence (P23975 whole entry): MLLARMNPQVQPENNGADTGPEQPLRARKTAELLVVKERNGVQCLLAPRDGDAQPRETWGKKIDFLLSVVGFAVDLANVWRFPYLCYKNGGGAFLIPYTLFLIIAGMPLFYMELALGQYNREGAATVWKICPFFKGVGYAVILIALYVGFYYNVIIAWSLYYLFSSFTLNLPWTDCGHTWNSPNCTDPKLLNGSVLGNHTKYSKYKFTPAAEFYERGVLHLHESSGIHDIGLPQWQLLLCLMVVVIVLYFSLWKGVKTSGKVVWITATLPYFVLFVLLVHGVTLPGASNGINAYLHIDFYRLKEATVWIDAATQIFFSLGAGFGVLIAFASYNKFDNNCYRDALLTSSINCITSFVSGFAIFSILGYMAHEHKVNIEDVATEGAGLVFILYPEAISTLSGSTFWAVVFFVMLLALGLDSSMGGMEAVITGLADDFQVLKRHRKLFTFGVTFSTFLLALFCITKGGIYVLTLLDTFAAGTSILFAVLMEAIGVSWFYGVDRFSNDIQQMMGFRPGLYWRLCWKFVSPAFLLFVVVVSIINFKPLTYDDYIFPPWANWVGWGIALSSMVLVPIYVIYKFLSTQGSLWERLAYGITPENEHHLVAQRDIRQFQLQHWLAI

The first assay addresses T1, hNET (Homo sapiens, UniProt P23975).
T1 construct: expressed in transfected cells
Put plainly: Norepinephrine (NE) uptake assay in MDCK-Net6 cells stably transfected with human hNET. The format is cell-based. As to conditions: MDCK-Net6, read-out: % Inhibition @ 1 μM (hNET). How it is done:
Cells were plated at 300,000/T75 flask and cells were split twice weekly. […] Cells were plated at 250,000 cells/T75 flask and split twice weekly.
On day 1, cells were plated at 3,000 cells/well in growth medium and maintained in a cell incubator (37° C., 5% CO2). On day 2, growth medium was replaced with 200 μl of assay buffer (25 mM HEPES; 120 mM NaCl; 5 mM KCl; 2.5 mM CaCl2; 1.2 mM MgSO4; 2 mg/ml glucose (pH 7.4, 37° C.)) containing 0.2 mg/ml ascorbic acid and 10 μM pargyline. Plates containing cells with 200 μl of assay buffer were equilibrated for 10 minutes at 37° C. prior to addition of compounds. A stock solution of desipramine was prepared in DMSO (10 mM) and delivered to triplicate wells containing cells for a final test concentration of 1 μM. Data from these wells were used to define non-specific NE uptake (minimum NE uptake). Test compounds were prepared in DMSO (10 mM) and diluted in assay buffer according to test range (1 to 10,000 nM). Twenty-five microliters of assay buffer (maximum NE uptake) or test compound were added directly to triplicate wells containing cells in 200 μl of assay buffer. The cells in assay buffer with test compounds were incubated for 20 minutes at 37° C. To initiate the NE uptake, [^3H]NE diluted in assay buffer (120 nM final assay concentration) was delivered in 25 μl aliquots to each well and the plates were incubated for 5 minutes (37° C.). The reaction was terminated by decanting the supernatant from the plate. The plates containing cells were washed twice with 200 μl assay buffer (37° C.) to remove free radioligand. The plates were then inverted, left to dry for 2 minutes, then reinverted and air-dried for an additional 10 minutes. The cells were lysed in 25 μl of 0.25 N NaOH solution (4° C.), placed on a shake table and vigorously shaken for 5 minutes. After cell lysis, 75 μl of scintillation cocktail was added to each well and the plates were sealed with film tape. The plates were returned to the shake table and vigorously shaken for a minimum of 10 minutes to ensure adequate partitioning of organic and aqueous solutions. The plates were counted in a Wallac Microbeta counter (PerkinElmer) to collect the raw cpm data.
For each experiment, a data stream of cpm values collected from the Wallac Microbeta counter was downloaded to a Microsoft Excel statistical application program. Calculations of EC50 values were made using the transformed-both-sides logistic dose response program written by Wyeth Biometrics Department.
For `CNC[C@@H](O)[C@H](c1cccc(OC)c1)n1ccc2ccccc21` [Example 69, (1S,2R)-1-(1H-indol-1-yl)-1-(3-methoxyphenyl)-3-(methylamino)propan-2-ol hydrochloride], the inhibition at 1 µM worked out at 87.5%.

`CNC[C@@H](O)[C@H](c1ccccc1)n1ccc2cc(F)ccc21` [Example 75, (1S,2R)-1-(5-fluoro-1H-indol-1-yl)-3-(methylamino)-1-phenylpropan-2-ol hydrochloride]: the inhibition at 1 µM is 88.4%.

`CNC[C@@H](O)[C@H](c1ccccc1)n1ccc2cc(OC)ccc21` [Example 76, (1S,2R)-1-(5-methoxy-1H-indol-1-yl)-3-(methylamino)-1-phenylpropan-2-ol hydrochloride]: the inhibition at 1 µM stood at 75.2%.

With `CNC[C@@H](O)[C@H](c1cccc(F)c1)n1ccc2cc(F)ccc21` [Example 85, (1S,2R)-1-(5-fluoro-1H-indol-1-yl)-1-(3-fluorophenyl)-3-(methyl-amino)propan-2-ol hydrochloride], the inhibition at 1 µM came to 97.4%.

The assay is the same for the next values; noted with them: test compound 1 μM; [3H]NE uptake, MDCK-Net6 cells; read-out: % Inhibition @ 1 μM (hNET).
`CNC[C@@H](O)[C@H](c1ccccc1)N1CCc2cccc(C)c21` [Example 66, (1S,2R)-3-(methylamino)-1-(7-methyl-2,3-dihydro-1H-indol-1-yl)-1-phenylpropan-2-ol hydrochloride]: the inhibition at 1 µM was 86.6%. As for `CNC[C@@H](O)[C@H](c1ccccc1)n1ccc2cccc(OC)c21` [Example 77, (1S,2R)-1-(7-methoxy-1H-indol-1-yl)-3-(methylamino)-1-phenylpropan-2-ol hydrochloride], the inhibition at 1 µM turned out to be 77.3%. On to `CNC[C@@H](O)[C@H](c1ccccc1)n1ccc2c(OC)cccc21` [Example 78, (1S,2R)-1-(4-methoxy-1H-indol-1-yl)-3-(methylamino)-1-phenyl propan-2-ol hydrochloride], for which the inhibition at 1 µM stood at 70.9%. For `CNC[C@@H](O)[C@H](c1ccccc1)n1ccc2ccc(OC)cc21` [Example 79, (1S,2R)-1-(6-methoxy-1H-indol-1-yl)-3-(methylamino)-1-phenyl propan-2-ol hydrochloride], the inhibition at 1 µM came out at 66%. For the molecule `CNC[C@@H](O)[C@H](c1cccc(F)c1)n1ccc2ccc(OC)cc21` [Example 81, (1S,2R)-1-(3-fluorophenyl)-1-(6-methoxy-1H-indol-1-yl)-3-(methyl-amino)propan-2-ol hydrochloride], the inhibition at 1 µM stood at 58%. With `CNC[C@@H](O)[C@H](c1ccccc1)n1ccc2cccnc21` [Example 82, (1S,2R)-3-(methylamino)-1-phenyl-1-(1H-pyrrolo[2,3-b]pyridin-1-yl)propan-2-ol], the inhibition at 1 µM stood at 53.9%. For `CNC[C@@H](O)[C@H](c1ccccc1)n1ccc2ccncc21` [Example 84, (1S,2R)-3-methylamino-1-phenyl-1-(1H-pyrrolo[2,3-c]pyridin-1-yl) propan-2-ol dihydrochloride], the inhibition at 1 µM is 40.9%.

As for `CNC[C@@H](O)[C@H](c1cccc(F)c1)n1ccc2ccncc21` [Example 86, (1S,2R)-3-methylamino-1-(3-fluorophenyl)-1-(1H-pyrrolo[2,3-c]pyridin-1-yl) propan-2-ol dihydrochloride], the inhibition at 1 µM is 52.7%. For the molecule `CNC[C@@H](O)[C@H](c1ccccc1)N1CCc2cc(Cl)ccc21` [Example 87, (1S,2R)-1-(5-chloro-2,3-dihydro-1H-indol-1-yl)-3-(methylamino)-1-phenylpropan-2-ol hydrochloride], the inhibition at 1 µM is 99.7%. Still for that read-out and setting: the value for `CNC[C@@H](O)[C@H](c1ccccc1)n1ccc2ccc(C)cc21` [Example 90, (1S,2R)-3-(methylamino)-1-(6-methyl-1H-indol-1-yl)-1-phenylpropan-2-ol hydrochloride] was 73.1%; that for `CNC[C@@H](O)[C@H](c1ccccc1)n1ccc2cccc(C)c21` [Example 91, (1S,2R)-3-(methylamino)-1-(7-methyl-1H-indol-1-yl)-1-phenylpropan-2-ol hydrochloride] was 90.8%.
